Data: patent publication US9290544B2, “Methods for making and using molecular switches involving circular permutation” (priority 2004, dated 2016)
“And” between values parts separate entries of the source, which are not always exact repeats. Identical values can stand only once.

Experiments:
[1] = Apparent dissociation constant for maltose from initial rate of nitrocefin hydrolysis; assay type: binding; conditions: 25° C.
Experimental: (§1) [formula] where ΔF is the change in fluorescence intensity, ΔFmax is the difference in fluorescence between no maltose and saturating amounts of maltose and [L] is the maltose concentration. The fluorescence quenching of RG13(1329W/A96W) upon addition of maltose was insufficient to accurately determine a Kd by this method. The dissociation constant for maltose and RG13(I329W) in the presence of saturating carbenicillin (2 mM) was determined by measuring the initial rate of carbenicillin hydrolysis as a function of maltose concentration. The apparent dissociation constant in the presence of subsaturating concentrations of nitrocefin (25 μM) for all three proteins was determined by measuring the initial rate of nitrocefin hydrolysis as a function of maltose concentration.

[2] = Dissociation constant for maltose using change in velocity of nitrocefin hydrolysis as signal; conditions: 22° C.; read-out: Kd for maltose binding
Experimental: (§2) A 6×His tag was added to the C-terminus of RG-200-13 (also termed “RG13” in Examples below) and the fusion was purified as previously described (Guntas and Ostermeier 2004). The protein was purified to approximately 60% purity. The kinetic constants and binding constants were determined from Eadie-Hofstee plots and Eadie plot equivalents, respectively, using a spectrophotometric assay for nitrocefin hydrolysis. Initial rates for nitrocefin hydrolysis were determined from absorbance at 486 nm monitored as a function of time. The enzyme was incubated at the assay temperature in the absence or presence of saccharide for four minutes prior to performing the assay. All assays contained 100 mM sodium phosphate buffer, pH 7.0. The dissociation constant for maltose was determined using change in velocity of nitrocefin hydrolysis as a signal.

[3] = Carbenicillin hydrolysis by purified RG13, 25° C.; assay type: biochemical; conditions: 50 μM carbenicillin
Experimental: (§3) All kinetic assays were performed at 25° C. in the presence of 100 mM sodium phosphate buffer, pH 7.0. Ten μl of enzyme stock was added to 1.59 ml buffer (containing the saccharide, if desired). After incubation for 30 seconds, 0.4 ml of 5× substrate was added and the absorbance at the appropriate wavelength was recorded using the Cary50 UV-VIS spectrophotometer. The wavelength monitored was 486 nm, 240 nm, and 232 nm for nitrocefin, carbenicillin, and ampicillin respectively. From the initial rate of reaction the kinetic constants were determined using Eadie-Hofstee plots. […] The rate data was consistent with a small hysteretic effect (Brennan et al. 1994) and not substrate inhibition as preincubation of the enzyme with the substrate for one minute prevented the lag from occurring upon addition of more substrate. Therefore, the steady state parameters for nitrocefin hydrolysis in the absence of maltose were determined by measuring the rate at 1-2 minutes (well after the lag) and correcting the substrate concentration by subtracting the amount of substrate hydrolyzed. In all cases the extent of reaction at the point the rate was measured was less than 25%. In the presence of maltose, no lag was observed.

[4] = Hydrolysis of ampicillin by RG-200-13 with and without 5 mM maltose; assay type: biochemical; conditions: pH 7.0, 22° C.
Experimental: as §2
(§4) Maltose binding had the largest effect on cephalothin (of the substrates tested), with the velocity of cephalothin hydrolysis being 32-fold higher in the presence of maltose than in its absence.

[5] = Hydrolysis of oxacillin by RG-200-13 with and without 5 mM maltose; assay type: biochemical; conditions: substrate oxacillin 1 mM; pH 7.0, 22° C.
Experimental: as §2, §4

[6] = Hydrolysis of benzylpenicillin by RG-200-13 with and without 5 mM maltose; assay type: biochemical; conditions: pH 7.0, 22° C.
Experimental: as §2, §4

[7] = Steady state kinetics of nitrocefin hydrolysis, purified RG13 proteins, 25° C.; assay type: biochemical
Experimental: as §3

[8] = Maltose affinity by intrinsic protein fluorescence; assay type: binding
Experimental: Maltose affinity for RG13 (in presence and absence of 10 mM carbenicillin) and RG13(1329W) (in the absence of substrate) was determined using intrinsic protein fluorescence measured on a Photon Technology QuantaMaster QM-4 spectrofluorometer. Fluorescence spectra were obtained at 25° C. at different concentrations of maltose in 50 mM sodium phosphate buffer, pH 7.0, containing 100 mM sodium chloride. The protein concentration was 50-100 nM. Excitation was at 280 nm. The quenching in fluorescence intensity at 341 nm caused by maltose was used in Eadie-Hofstee equivalent plots to determine Kd using the following equation:
as §1

DH5α-E cells = test: In vivo characterization: MIC of ampicillin for DH5α-E cells expressing the protein; assay type: cell-based, E. coli; conditions: for Minimum Inhibitory Concentration of Ampicillin: LB plates, 37° C., 20 hours
Experimental: Overnight inoculums of DH5α-E cells expressing RG13, BLA or BLA(W208G) were diluted into LB media and plated on LB plates, either in the absence or presence of 50 μM maltose, in the presence of increasing amounts of ampicillin. Ampicillin was present in the plates at the following concentrations: 0, 2, 4, 8, 16, 32, 64, 128, 256, 512, and 2000 μg/ml. Cells were plated at approximately 1000 CFU (no antibiotic) per plate. The plates were incubated at 37° C. for 20 hours. The minimum inhibitory concentration (MIC) was defined as the lowest ampicillin concentration at which no colonies were present, or that at which the number of colonies present was <1% of the number of colonies at the next lowest level of ampicillin.

[9] = Spectrophotometric nitrocefin hydrolysis assay of purified RG-200-13, 22° C.; assay type: biochemical; conditions: for Change in velocity of nitrocefin hydrolysis in presence of sugar: 50 μM nitrocefin; for Change in velocity of nitrocefin hydrolysis in presence of sugar / Km / kcat: pH 7.0, 22° C.
Experimental: as §2

[10] = effector maltose 5 mM (saturating)
[11] = effector maltose 5 mM (saturating), nitrocefin, 25° C.
[12] = effector β-cyclodextrin 5 mM, nitrocefin, 25° C.
[13] = no effector, nitrocefin, pH 7.0, 25° C.

With “RG13: MBP-BLA fusion switch MBP[1-316]-BLA[227-286]-GSGGG-BLA[24-226]-S-MBP[319-370]; SEQ ID NO: 61” the Kd [1] was 6.7 ± 0.03 µM, the Kd [2] was about 5 µM and the “Rate increase with maltose” value [3] was 12 fold. For the same substance, the “Approximate fold increase in velocity of ampicillin hydrolysis in the presence of 5 mM maltose” value ([4]; substrate ampicillin 100 μM) was about 26 fold, the “Approximate fold increase in velocity of ampicillin hydrolysis in the presence of 5 mM maltose” value ([4]; substrate ampicillin 500 μM) was about 10 fold and the “Approximate fold increase in velocity of oxacillin hydrolysis in the presence of 5 mM maltose” value [5] was about 5 fold. For the same substance, the “Approximate fold increase in velocity of benzylpenicillin hydrolysis in the presence of 5 mM maltose” value ([6]; substrate benzylpenicillin 100 μM) was about 17 fold, the “Approximate fold increase in velocity of benzylpenicillin hydrolysis in the presence of 5 mM maltose” value ([6]; substrate benzylpenicillin 500 μM) was about 7 fold and the “Increase in the reaction rate on addition of subsaturating maltose” value ([7]; 20 μM nitrocefin, 2.5 nM RG13, 2 ml, 20 μl of 1 M maltose added (FIG. 7B)) was 10 fold. The “Km Ratio (with effector)/(without effector)” value ([7]; effector maltose 5 mM) was 0.12 ± 0.03, the “kcat Ratio (with effector)/(without effector)” value [7, 10] was 3 and 3.1 ± 0.6 and the “kcat/Km Ratio (with effector)/(without effector)” value [7, 10] was 25 and 25 ± 7. For the same substance, the Km [7, 11] was 68 ± 4 µM, the kcat [7, 11] was 620 ± 60 s⁻¹ and 620 ± 30 s⁻¹ and the “Km Ratio (with effector)/(without effector)” value ([7]; effector β-cyclodextrin 5 mM) was 1.6 ± 0.4. For the same substance, the “kcat Ratio (with effector)/(without effector)” value ([7]; effector β-cyclodextrin 5 mM) was 2.9 ± 0.6, the “kcat/Km Ratio (with effector)/(without effector)” value ([7]; effector β-cyclodextrin 5 mM) was 1.8 ± 0.6 and the Km [7, 12] was 870 ± 90 µM. For the same substance, the kcat [7, 12] was 590 ± 60 s⁻¹, the “Decrease of Km with saturating amounts of maltose” value ([7]; nitrocefin, 25° C.) was 8 fold and the Km [7, 13] was 550 ± 120 µM. The kcat [7, 13] was 200 ± 40 s⁻¹, the “Effect of non-ligands on rate of nitrocefin hydrolysis” value ([7]; sucrose, lactose and galactose 5 mM, 20 μM nitrocefin (FIG. 7A)) was “no effect” and the “Increase in the rate of nitrocefin hydrolysis upon addition of ligand” value ([7]; β-cyclodextrin 5 mM, 20 μM nitrocefin (FIG. 7A)) was 2 fold. For the same substance, the Kd ([8]; 10 mM carbenicillin, 25° C., read-out: Kd maltose, Saturating Carbenicillin, IPF) was 1.3 ± 0.5 µM, the Kd ([8]; intrinsic protein fluorescence, 100 mM NaCl, 50 mM NaPO4, pH 7.0, 25° C., read-out: Kd maltose, No Substrate) was 5.5 µM and 5 to 6 µM and the Kd ([8]; text of Example 3, read-out: Dissociation constant for maltose in the presence of saturating amounts of carbenicillin) was about 1 µM. The “Effect of the same concentration (50 μM) of sucrose or glucose on the MIC” value (DH5α-E cells) was “did not affect the MIC”, the “Increase of MIC for ampicillin in the presence of 50 μM maltose” value (DH5α-E cells) was “four-fold” and the “Minimum Inhibitory Concentration of Ampicillin” value (DH5α-E cells; 50 μM maltose) was 512 µg/mL. For the same substance, the “Minimum Inhibitory Concentration of Ampicillin” value (DH5α-E cells; No maltose) was 128 µg/mL, the “Change in velocity of nitrocefin hydrolysis in presence of sugar” value (shortened to “Change in velocity”) ([9]; Galactose 5 mM) was −3% and the “Change in velocity” value ([9]; Lactose 5 mM) was −4%. For the same substance, the “Change in velocity” value ([9]; Maltose 5 mM) was “+1800%”, the “Change in velocity” value ([9]; Maltotetraitol 5 mM) was “+400%” and the “Change in velocity” value ([9]; Maltotriose 5 mM) was “+1700%”. For the same substance, the “Change in velocity” value ([9]; Sucrose 5 mM) was −5%, the Km ([9]; nitrocefin, 5 mM maltose) was about 85 µM and the kcat ([9]; nitrocefin, 5 mM maltose, listed as RG-200-13) was about 520 s⁻¹. For the same substance, the “Km Ratio (with maltose)/(without maltose)” value ([9]; nitrocefin, 22° C.) was about 0.26, the “kcat Ratio (with maltose)/(without maltose)” value ([9]; nitrocefin, 22° C.) was about 6.5 and the Km ([9]; nitrocefin, no maltose) was about 325 µM. For the same substance, the kcat ([9]; nitrocefin, no maltose) was about 80 s⁻¹ and the “Change in velocity” value ([9]; β-cyclodextrin 3 mM) was “+150%”.
